The test system of data set [1] is dopamine release. In words: dopamine releasing properties (no method given).
In data set [2] the target is T1, reuptake of dopamine in synaptosomes of rat forebrain (Rattus norvegicus, UniProt P23977).
T1 construct: Fresh whole forebrain (at 0-4°C) from male Wistar rats (150-200 g) is homogenized; from tissue; host or cells: male Wistar rat whole forebrain, crude synaptosomal supernatant
In words: inhibition of reuptake of 3H-dopamine in synaptosomes of rat forebrain. It counts as biochemical.
Procedure: Fresh whole forebrain (at 0-4°C) from male Wistar rats (150-200 g) is homogenized in a glass homogenizer with a teflon pestle in 20 x volumes 0.32M sucrose. The homogenate is centrifuged at 1000 x g (∼ 2900 rpm) for 10 min. The pellet is discarded and the supernatant is used for uptake assays.
A Krebs Buffer (119 mM NaCI, 24 mM NaHCO3, 2.1 mM KCI, 1.2 mM KH2PO4, 1.8 mM CaCl2, 2 mM MgSO4, 7H2O, 12 mM glucose) is equilibrated with an atmosphere of 96% O2: 4% CO2 for at least 60 min at 37°C. To 5 ml Krebs-buffer 100 µl of the radioactivity is added (3H-dopamine 1 x 10^-9M final concentration) and 100 µl test substance solution and 200 µl of tissue suspension. The samples are thoroughly mixed and incubated 10 min at 37°C followed by 2 min at 0°C. After incubation the samples are poured directly onto Whatman GF/C glass fibre filters under suction and immediately washed with 2 x 5 ml ice-cold 0.9% saline (NaCI) buffer. To the filter is added 3 ml of scintillation fluid, and the amount of radioactivity on the filters is determined by conventional liquid scintillation counting.

The subject of data set [3] is haloperidol-induced catalepsy. In words: catalepsy test for antiparkinsonian effects (antagonism of haloperidol-induced catalepsy). The note with it: rat, given perorally 1 h before haloperidol 0.25 mg/kg s.c.; read-out: Minimum effective dose (peroral administration). The format is in vivo.
Source text: The day before testing, the rats weighing 200-250 g are housed 2 and 2 together in standard macrolon cages. […] The testing for the immobile catalepsy syndrome includes 4 tests performed in the following consecutive order: • 1) a vertical wire netting (40x40 cm high).The meshes (openings) of the nettings are approximately 1x2cm. • 2) a horizontal bar 9 cm above the floor • 3) a 9 cm high block (bar) • 4) a 3 cm high block (cork)
The rats were scored for the immobile cataleptic syndrome every 15 min in all 4 tests starting 15 min after the haloperidol injection. The intensity of catalepsy was tested during 10 sec in all tests and evaluated according to a criteria of 10 sec of total immobility for a score of 2.
The rat was placed in the middle of the vertical wire netting, then on the horizontal bar in an extended position with support by both the forelegs on the bar. The rats were then tested, whether or not they were willing to sit with the left or right forelegs placed first on the 9 and then on the 3 cm block for a duration of 10 sec. The maximum score for all 4 tests is thus a total of 8.
Data set [4] relates to rearing and locomotor activities. In words: behavioural excitatory locomotor and rearing responses (gross behaviour rating). It counts as in vivo. To be noted: rat, 50 mg/kg i.p., maximum peak effect, observed 5-6 hrs.
Procedure: Male SPF wistar rats weighing 200-250g were used for the gross behavioural studies. All rats were transferred the day before the experiments to individual cages made of wire netting (floor area 21 x 27 cm, height 16 cm) at a room temperature of 21-23° C. […] The behavioural elements here classified as rearing (i.e. standing up on the hindlegs) and locomotor activities (i.e. forward running activities) were registered, and the maximum peak effects were classified according to the following rating scale: • 0 = non-existent or very infrequent • + = weak and infrequent • ++ = moderate in intensity and frequency • +++ = very strong, continuous and intense
The degree of locomotor activity was also tested and measured quantitatively in photocell activity cages. For the measurement of this locomotor activity 100 g female rats are used.
Data set [5] relates to abnormal stereotyped behaviour. In words: abnormal stereotyped behaviour (high intensity stereotypy rating). The format is in vivo. The note with it: rat, 50 mg/kg i.p. From the text:
Backward locomotion may occasionally be observed.

pIC50: −log10 of the molar value. Bounds are passed on as bounds.

T1 sequence (P23977 whole entry): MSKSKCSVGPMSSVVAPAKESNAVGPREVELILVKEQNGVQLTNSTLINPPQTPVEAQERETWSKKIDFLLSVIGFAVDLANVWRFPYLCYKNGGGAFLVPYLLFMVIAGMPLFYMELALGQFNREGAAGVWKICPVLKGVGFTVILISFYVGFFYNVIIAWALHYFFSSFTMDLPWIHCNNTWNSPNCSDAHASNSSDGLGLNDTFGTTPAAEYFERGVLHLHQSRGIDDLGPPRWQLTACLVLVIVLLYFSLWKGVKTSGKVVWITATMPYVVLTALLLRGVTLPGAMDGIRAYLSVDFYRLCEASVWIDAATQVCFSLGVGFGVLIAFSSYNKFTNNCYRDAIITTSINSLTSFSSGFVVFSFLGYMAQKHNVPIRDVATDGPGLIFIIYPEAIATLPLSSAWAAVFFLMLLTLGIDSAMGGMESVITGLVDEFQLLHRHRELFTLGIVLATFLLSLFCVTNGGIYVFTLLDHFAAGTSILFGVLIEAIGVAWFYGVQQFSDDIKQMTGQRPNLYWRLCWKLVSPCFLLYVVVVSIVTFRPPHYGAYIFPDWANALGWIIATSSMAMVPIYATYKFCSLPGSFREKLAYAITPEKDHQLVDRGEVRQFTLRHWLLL

In the case of `COC(=O)[C@@H]1[C@@H](c2ccc(F)cc2)C[C@@H]2CC[C@H]1N2C` [trans isomer of Win 35,428], the dopamine releasing properties result in data set [1] is “essentially free of dopamine releasing properties”.
In the case of `CN1[C@H]2CC[C@@H]1[C@H](COc1ccc(Cl)cc1)[C@@H](c1ccc(F)cc1)C2.Cl` [(1R,2R,3S)-2-(4-Chlorophenoxy-methyl)-3-(4-fluorophenyl)tropane, hydrochloride], the pIC50 in data set [2] was 6.41. Also, the minimal effective dose in data set [3] was under 1 mg/kg. In addition, the “Activity (excitatory locomotor and rearing responses)” value in data set [4] was determined as 0. Further, the “Activity (abnormal stereotyped behaviour, high intensity stereotypy)” value in data set [5] was 0.
